Assay results from patent US20230391760A1, “HETEROCYCLIC GLP-1 AGONISTS” (Gasherbrum Bio, Inc., priority 2020, published 2023).

What follows are compounds tested against GLP-1 Receptor (Homo sapiens, UniProt P43220) (assay: GLP-1R agonist cAMP stimulation assay (HEK293/GLP1R/CRE-LUC cells, cAMP dynamic 2 Kit)). Details: HEK293/CRE-Luc cell line stably expressing the GLP-1 Receptor, 30 min at 37° C.
GLP-1 Receptor, sequence (P43220 24-463, species assumed): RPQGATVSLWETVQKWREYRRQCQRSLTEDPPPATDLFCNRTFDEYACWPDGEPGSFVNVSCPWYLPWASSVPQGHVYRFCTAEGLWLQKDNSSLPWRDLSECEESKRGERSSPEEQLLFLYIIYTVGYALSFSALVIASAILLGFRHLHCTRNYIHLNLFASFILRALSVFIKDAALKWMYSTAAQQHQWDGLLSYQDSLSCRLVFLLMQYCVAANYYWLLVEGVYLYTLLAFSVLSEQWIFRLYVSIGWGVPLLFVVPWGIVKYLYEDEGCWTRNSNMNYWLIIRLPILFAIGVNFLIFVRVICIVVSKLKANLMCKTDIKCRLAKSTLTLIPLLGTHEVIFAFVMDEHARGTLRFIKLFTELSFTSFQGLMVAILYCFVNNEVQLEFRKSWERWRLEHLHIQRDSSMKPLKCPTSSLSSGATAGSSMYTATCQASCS
Assay type: cell-based
In short: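 cAMP measured by HTRF competition (d2-labelled cAMP with cryptate antibody, 1 h, room temperature, protected from light). Before that, GLP1R/CRE-Luc HEK293 cells (1000/well) were exposed for 30 min at 37 °C to half-log compound dilutions in DPBS containing IBMX 0.5 mM and BSA 0.1%.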
In the case of `CO[C@H](C)Cn1c(CN2CCC(c3cccc4c3O[C@@](C)(c3ccc(Cl)cn3)O4)CC2)nc2cc(-c3noc(=O)[nH]3)ncc21` [Compound 466a, 3-[2-({4-[(2S)-2-(5-chloropyridin-2-yl)-2-methyl-2H-1,3-benzodioxol-4-yl]piperidin-1-yl}methyl)-3-[(2R)-2-methoxypropyl]-3H-imidazo[4,5-c]pyridin-6-yl]-4,5-dihydro-1,2,4-oxadiazol-5-one], the EC50 is reported as 190 pM. Compound `COc1ccc(C(=O)Nc2ccc3c(c2)nc(CN2CCC(c4cccc(OCc5ccc(Cl)cc5F)n4)CC2)n3C[C@@H]2CCO2)cn1` [Compound 175a, N-{2-[(4-{6-[(4-chloro-2-fluorophenyl)methoxy]pyridin-2-yl}piperidin-1-yl)methyl]-1-{[(2S)-oxetan-2-yl]methyl}-1H-1,3-benzodiazol-5-yl}-6-methoxypyridine-3-carboxamide] has an EC50 of 1500 pM. `O=C(Nc1ccc2c(c1)nc(CN1CCC(c3cccc(OCc4ccc(Cl)cc4F)n3)CC1)n2C[C@@H]1CCO1)c1ccn2cncc2c1` [Compound 179a, N-{2-[(4-{6-[(4-chloro-2-fluorophenyl)methoxy]pyridin-2-yl}piperidin-1-yl)methyl]-1-{[(2S)-oxetan-2-yl]methyl}-1H-1,3-benzodiazol-5-yl}imidazo[1,5-a]pyridine-7-carboxamide] gave an EC50 of 270 pM. In the case of `CC(C(=O)Nc1ccc2c(c1)nc(CN1CCC(c3cccc(OCc4ccc(Cl)cc4F)n3)CC1)n2C[C@@H]1CCO1)n1ccnc1` (stereo partly drawn) [Compound 195a, N-{2-[(4-{6-[(4-chloro-2-fluorophenyl)methoxy]pyridin-2-yl}piperidin-1-yl)methyl]-1-{[(2S)-oxetan-2-yl]methyl}-1H-1,3-benzodiazol-5-yl}-2-(1H-imidazol-1-yl)propanamide], the EC50 is reported as 630 pM. `CC1(c2ccc(Cl)cn2)Oc2c(F)ccc(C3CCN(Cc4nc5cc(-c6nnc(C(F)(F)F)[nH]6)nnc5n4C[C@@H]4CCO4)CC3)c2O1` (stereo partly drawn) [Compound 524a, 5-chloro-2-[4-fluoro-2-methyl-7-{1-[(7-{[(2S)-oxetan-2-yl]methyl}-3-[5-(trifluoromethyl)-4H-1,2,4-triazol-3-yl]-7H-imidazo[4,5-c]pyridazin-6-yl)methyl]piperidin-4-yl}-2H-1,3-benzodioxol-2-yl]pyridine] was tested, and the EC50 was 450 pM. `C[C@]1(c2ccc(Cl)cn2)Oc2cccc(C3CCN(Cc4nc5cc(C(=O)O)nnc5n4C[C@@H]4CCO4)CC3)c2O1` [Compound 464a, 6-({4-[(2S)-2-(5-chloropyridin-2-yl)-2-methyl-2H-1,3-benzodioxol-4-yl]piperidin-1-yl}methyl)-7-{[(2S)-oxetan-2-yl]methyl}-7H-imidazo[4,5-c]pyridazine-3-carboxylic acid] gave an EC50 of 760 pM. `CC1(c2ccc(Cl)cc2)Oc2cccc(C3CCN(Cc4nc5cc(-c6nnc(C(F)(F)F)[nH]6)ncc5n4C[C@@H]4CCO4)CC3)c2O1` (stereo partly drawn) [Compound 361a, 4-[2-(4-chlorophenyl)-2-methyl-2H-1,3-benzodioxol-4-yl]-1-[(3-{[(2S)-oxetan-2-yl]methyl}-6-[5-(trifluoromethyl)-4H-1,2,4-triazol-3-yl]-3H-imidazo[4,5-c]pyridin-2-yl)methyl]piperidine] gave an EC50 of 34 pM. In the case of `CC1(c2ccc(Cl)cn2)Oc2cccc(C3CCN(Cc4nc5cc(-c6nnc(C(F)(F)F)[nH]6)ccc5n4C[C@@H]4CCO4)CC3)c2O1` (stereo partly drawn) [Compound 257a, 2-({4-[2-(5-chloropyridin-2-yl)-2-methyl-2H-1,3-benzodioxol-4-yl]piperidin-1-yl}methyl)-1-{[(2S)-oxetan-2-yl]methyl}-5-[5-(trifluoromethyl)-4H-1,2,4-triazol-3-yl]-1H-1,3-benzodiazole], the EC50 is reported as 98 pM. In the case of `CC1(c2ccc(Cl)cc2F)Oc2c(F)ccc(C3CCN(Cc4nc5cc(-c6nnc(C(F)(F)F)[nH]6)ncc5n4C[C@@H]4CCO4)CC3)c2O1` (stereo partly drawn) [Compound 459a, 4-[2-(4-chloro-2-fluorophenyl)-7-fluoro-2-methyl-2H-1,3-benzodioxol-4-yl]-1-[(3-{[(2S)-oxetan-2-yl]methyl}-6-[5-(trifluoromethyl)-4H-1,2,4-triazol-3-yl]-3H-imidazo[4,5-c]pyridin-2-yl)methyl]piperidine], the EC50 is reported as 8.8 pM. `COCCn1c(CN2CCC(c3cccc4c3OC(C)(c3ccc(Cl)cc3F)O4)CC2)nc2cc(-c3nnc(C(F)(F)F)[nH]3)cnc21` (stereo not shown) [Compound 402, 4-[2-(4-chloro-2-fluorophenyl)-2-methyl-2H-1,3-benzodioxol-4-yl]-1-{[3-(2-methoxyethyl)-6-[5-(trifluoromethyl)-4H-1,2,4-triazol-3-yl]-3H-imidazo[4,5-b]pyridin-2-yl]methyl}piperidine] gave an EC50 of 750 pM. `O=c1[nH]c(-c2cnc3c(c2)nc(CN2CCC(c4cccc(OCc5ccc(Cl)cc5F)n4)CC2)n3C[C@@H]2CCO2)no1` [Compound 328a, 3-{2-[(4-{6-[(4-chloro-2-fluorophenyl)methoxy]pyridin-2-yl}piperidin-1-yl)methyl]-3-{[(2S)-oxetan-2-yl]methyl}-3H-imidazo[4,5-b]pyridin-6-yl}-4,5-dihydro-1,2,4-oxadiazol-5-one] was tested, and the EC50 was 370 pM. `Cc1nnc(-c2cc3nc(CN4CCC(c5cccc6c5OC(c5ccc(Cl)cc5F)CO6)CC4)n(C[C@@H]4CCO4)c3cn2)[nH]1` (stereo partly drawn) [Compound 468a, 4-[3-(4-chloro-2-fluorophenyl)-2,3-dihydro-1,4-benzodioxin-5-yl]-1-{[6-(5-methyl-4H-1,2,4-triazol-3-yl)-3-{[(2S)-oxetan-2-yl]methyl}-3H-imidazo[4,5-c]pyridin-2-yl]methyl}piperidine] gave an EC50 of 530 pM. `Cc1cn(-c2ccc3c(c2)nc(CN2CCC(c4cccc(OCc5ccc(Cl)cc5F)n4)CC2)n3C[C@@H]2CCO2)nn1` [Compound 210a, 2-[(4-{6-[(4-chloro-2-fluorophenyl)methoxy]pyridin-2-yl}piperidin-1-yl)methyl]-5-(4-methyl-1H-1,2,3-triazol-1-yl)-1-{[(2S)-oxetan-2-yl]methyl}-1H-1,3-benzodiazole] gave an EC50 of 4200 pM. With `N#Cc1ccc(COc2cc(C3CCN(Cc4nc5cc(-c6nnc(C(F)(F)F)[nH]6)nnc5n4C[C@@H]4CCO4)CC3)ccc2F)c(F)c1` [Compound 521a, 3-fluoro-4-[(2-fluoro-5-{1-[(7-{[(2S)-oxetan-2-yl]methyl}-3-[5-(trifluoromethyl)-4H-1,2,4-triazol-3-yl]-7H-imidazo[4,5-c]pyridazin-6-yl)methyl]piperidin-4-yl}phenoxy)methyl]benzonitrile] the EC50 was 510 pM. `CC1OC2(C(=O)Nc3ccc4c(c3)nc(CN3CCC(c5cccc(OCc6ccc(Cl)cc6F)n5)CC3)n4C[C@@H]3CCO3)CCC1CC2` (stereo partly drawn) [Compound 198a, N-{2-[(4-{6-[(4-chloro-2-fluorophenyl)methoxy]pyridin-2-yl}piperidin-1-yl)methyl]-1-{[(2S)-oxetan-2-yl]methyl}-1H-1,3-benzodiazol-5-yl}-3-methyl-2-oxabicyclo[2.2.2]octane-1-carboxamide] showed an EC50 of 12000 pM. Work on `C[C@H]1CN(c2ccc(F)c(OCc3ccc(Cl)cc3F)c2)CCN1Cc1nc2cc(-c3nnc(C(F)(F)F)[nH]3)nnc2n1C[C@@H]1CCO1` [Compound 518a, (2S)-4-{3-[(4-chloro-2-fluorophenyl)methoxy]-4-fluorophenyl}-2-methyl-1-[(7-{[(2S)-oxetan-2-yl]methyl}-3-[5-(trifluoromethyl)-4H-1,2,4-triazol-3-yl]-7H-imidazo[4,5-c]pyridazin-6-yl)methyl]piperazine] yielded an EC50 of 410 pM. In the case of `N#Cc1ccc(COc2cccc(C3CCN(Cc4nc5cc(-c6nnc(C(F)(F)F)[nH]6)cnc5n4C[C@@H]4CCO4)CC3)n2)c(F)c1` [Compound 325a, 3-fluoro-4-{[(6-{1-[(3-{[(2S)-oxetan-2-yl]methyl}-6-[5-(trifluoromethyl)-4H-1,2,4-triazol-3-yl]-3H-imidazo[4,5-b]pyridin-2-yl)methyl]piperidin-4-yl}pyridin-2-yl)oxy]methyl}benzonitrile], the EC50 is reported as 12 pM. `C[C@]1(c2ccc(Cl)cn2)Oc2cccc(C3CCN(Cc4nc5cc(-c6n[nH]c(C(F)(F)F)n6)cnc5n4C[C@@H]4CCO4)CC3)c2O1` (single isomer, unassigned) [Compound 333b] was tested, and the EC50 was 29 pM. `CO[C@@H](C)Cn1c(CN2CCC(c3cccc4c3OC(C)(c3ccc(Cl)cn3)O4)CC2)nc2cc(-c3nnc(C(F)(F)F)[nH]3)ncc21` (stereo partly drawn) [Compound 445a, 5-chloro-2-{4-[1-({3-[(2S)-2-methoxypropyl]-6-[5-(trifluoromethyl)-4H-1,2,4-triazol-3-yl]-3H-imidazo[4,5-c]pyridin-2-yl}methyl)piperidin-4-yl]-2-methyl-2H-1,3-benzodioxol-2-yl}pyridine] gave an EC50 of 2000 pM. For `CCc1nnc(-c2cnc3c(c2)nc(CN2CCC(c4cccc5c4O[C@@](C)(c4ccc(Cl)cc4F)O5)CC2)n3C[C@@H]2CCO2)[nH]1` [Compound 352a, 4-[(2S)-2-(4-chloro-2-fluorophenyl)-2-methyl-2H-1,3-benzodioxol-4-yl]-1-{[6-(5-ethyl-4H-1,2,4-triazol-3-yl)-3-{[(2S)-oxetan-2-yl]methyl}-3H-imidazo[4,5-b]pyridin-2-yl]methyl}piperidine], the EC50 was 430 pM. Compound `Cc1cc(=O)[nH]c(-c2cc3nc(CN4CCC(c5cccc(OCc6ccc(Cl)cc6F)n5)CC4)n(C[C@@H]4CCO4)c3cn2)n1` [Compound 453a, 2-{2-[(4-{6-[(4-chloro-2-fluorophenyl)methoxy]pyridin-2-yl}piperidin-1-yl)methyl]-3-{[(2S)-oxetan-2-yl]methyl}-3H-imidazo[4,5-c]pyridin-6-yl}-6-methyl-3,4-dihydropyrimidin-4-one] has an EC50 of 1900 pM. `O=C(Nc1ccc2c(c1)nc(CN1CCC(c3cccc(OCc4ccc(Cl)cc4F)n3)CC1)n2C[C@@H]1CCO1)c1ccccc1` [Compound 166a, N-{2-[(4-{6-[(4-chloro-2-fluorophenyl)methoxy]pyridin-2-yl}piperidin-1-yl)methyl]-1-{[(2S)-oxetan-2-yl]methyl}-1H-1,3-benzodiazol-5-yl}benzamide] showed an EC50 of 140 pM.
